We go through 17 compounds from patent US20260356824A1, “COMPOUNDS FOR TREATING FIBROTIC DISEASES” (Meta-Immue Inc., priority 2023, published 2026).

The structures appear in SMILES notation. Some results are limits rather than exact numbers.

One series deals with A2058 cells. In words: Chemotaxis Assay (LPA-induced migration of A2058 cells). Format: cell-based. Conditions: Homo sapiens, 4 to 8 hours, crystal violet 590 nm. The method, then: For monitoring the migration of cells, Neuroprobe ChemoTx® System plates ([…], 5.7 mm diameter sites; Gaithersburg, MD, USA) were utilized. To induce cell migrations, a concentration of […] or vehicle in DMEM were loaded to the bottom chamber. A total of 15,000 A2058 cells, which were starved for 24 hr following treated with test compounds or vehicle, were then applied to the upper membrane coated with 0.001% fibronectin. The plate was incubated for 4 to 8 hours to allow cell migration. Following incubation, the plate was dissembled, and the migrated cells were visualized by crystal violet staining. The stained area with crystal violet was quantified by measuring the absorbance at 590 nm and the relative percentage of the control was calculated.

For a further series, the target named is T1, hLPAR1 (Homo sapiens, UniProt Q92633).
T1 construct: expressed in transfected cells
T1 sequence (Q92633 whole entry): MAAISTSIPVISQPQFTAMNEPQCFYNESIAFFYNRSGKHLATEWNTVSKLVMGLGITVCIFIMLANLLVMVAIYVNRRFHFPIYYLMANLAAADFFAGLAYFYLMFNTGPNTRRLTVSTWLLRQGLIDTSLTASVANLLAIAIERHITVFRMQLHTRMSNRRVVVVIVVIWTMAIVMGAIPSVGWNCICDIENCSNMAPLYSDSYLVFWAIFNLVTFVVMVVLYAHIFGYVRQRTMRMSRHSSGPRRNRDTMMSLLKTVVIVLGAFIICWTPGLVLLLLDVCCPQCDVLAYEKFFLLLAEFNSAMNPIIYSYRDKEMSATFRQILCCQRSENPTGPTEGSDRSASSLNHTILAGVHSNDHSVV
In words: Ca2+ Flux Assay (B103 cells stably expressing hLPAR1). Format: cell-based. Conditions: LPA-induced calcium release, Fura-2 AM, compound 20 min at RT. The method, then:
B103 cells stably expressing hLPAR1 were seeded at a density of 1.0×10^5 cells per well in clear flat-bottom black 96-well plates and incubated overnight in complete media. The following day, the cells were pre-incubated in serum-free media for 2 hours prior to ensure cellular equilibration. For the loading a calcium-sensitive fluorescent dye, the cells were treated with a concentration of 5 μM Fura-2 AM dye (Sigma, F1225) in Hank's buffered salt solution (HBSS) supplemented with 20 mM HEPES, […], and 0.3% fatty-acid-free bovine serum albumin for 40 minutes at room temperature (RT). Test compounds, prepared in DMSO, were then added to each well and incubated for 20 minutes at RT. To induce calcium release, a concentration of […] in HBSS supplemented with 20 mM HEPES, and 0.3% fatty-acid-free bovine serum albumin was introduced. Intracellular calcium mobilization was subsequently quantified by monitoring the fluorescence intensity using the Spark® multimode microplate reader (TECAN).
On the technique in general: Calcium flux is commonly read through the fluorescence of an indicator in the cells.

The target in another series is T2, BSEP (Homo sapiens, UniProt O95342).
T2 construct: ATP-dependent uptake of radiolabelled probe substrate
T2 sequence (O95342 whole entry): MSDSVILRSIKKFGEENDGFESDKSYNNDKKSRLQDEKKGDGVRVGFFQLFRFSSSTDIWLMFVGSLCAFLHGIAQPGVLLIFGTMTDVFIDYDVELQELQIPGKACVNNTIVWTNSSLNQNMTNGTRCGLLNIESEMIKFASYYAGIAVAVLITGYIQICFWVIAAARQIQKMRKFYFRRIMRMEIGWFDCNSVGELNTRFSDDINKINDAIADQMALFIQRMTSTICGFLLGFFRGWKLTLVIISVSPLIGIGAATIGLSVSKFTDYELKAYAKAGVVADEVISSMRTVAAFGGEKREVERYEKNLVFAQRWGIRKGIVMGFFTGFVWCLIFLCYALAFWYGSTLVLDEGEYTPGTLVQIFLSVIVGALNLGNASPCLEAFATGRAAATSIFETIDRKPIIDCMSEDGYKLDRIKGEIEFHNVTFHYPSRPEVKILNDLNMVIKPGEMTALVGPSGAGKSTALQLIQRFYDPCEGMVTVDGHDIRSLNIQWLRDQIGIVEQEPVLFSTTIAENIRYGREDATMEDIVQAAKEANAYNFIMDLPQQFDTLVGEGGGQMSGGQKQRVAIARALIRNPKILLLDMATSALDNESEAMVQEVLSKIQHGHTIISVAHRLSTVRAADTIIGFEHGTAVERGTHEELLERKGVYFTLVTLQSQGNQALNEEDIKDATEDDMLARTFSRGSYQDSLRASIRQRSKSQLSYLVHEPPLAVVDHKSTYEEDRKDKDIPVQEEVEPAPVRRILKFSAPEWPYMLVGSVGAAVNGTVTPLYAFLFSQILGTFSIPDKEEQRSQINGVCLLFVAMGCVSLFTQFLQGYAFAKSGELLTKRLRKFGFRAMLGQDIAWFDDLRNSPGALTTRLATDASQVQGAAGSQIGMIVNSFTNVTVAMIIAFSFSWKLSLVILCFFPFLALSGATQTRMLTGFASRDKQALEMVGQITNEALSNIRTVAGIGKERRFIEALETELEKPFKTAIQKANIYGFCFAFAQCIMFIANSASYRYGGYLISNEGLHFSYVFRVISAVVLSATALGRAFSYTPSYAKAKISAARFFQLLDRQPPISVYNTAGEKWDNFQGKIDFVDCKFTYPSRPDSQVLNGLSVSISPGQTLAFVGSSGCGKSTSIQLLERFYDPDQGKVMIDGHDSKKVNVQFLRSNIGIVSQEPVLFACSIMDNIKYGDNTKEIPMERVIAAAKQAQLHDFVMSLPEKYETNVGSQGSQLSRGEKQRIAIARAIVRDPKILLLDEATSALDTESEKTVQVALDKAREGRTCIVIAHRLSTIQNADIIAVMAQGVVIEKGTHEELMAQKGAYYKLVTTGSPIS
In words: Bile Salt Export Pump (BSEP) Assay, Sf9 insect cell vesicles expressing BSEP. The class given is in vitro ADME. Conditions: 10 μM test compound, probe substrate 1 μM [3H]-taurocholic acid, 15 min incubation. How it is done:
• 1. A stock solution was prepared with the test article (Sponsor compound) in DMSO. • 2. All final assay solutions of probe substrate, reference inhibitor or test article contain 0.5% (v/v) DMSO (vehicle control). • 3. Test article concentrations in transport study were specified in the Summary Table of Experimental Conditions of this protocol.
• 1. Bovine Serum Albumin (BSA) • 2. Dimethyl sulfoxide (DMSO) • 3. BSEP Assay Uptake Buffer (10 mM HEPES-Tris pH 7.4, 0.1 M KNO3, 12.5 mM Mg(NO3)2, 50 mM sucrose) • 4. BSEP Wash Buffer (10 mM Tris-HCl pH 7.4, 0.1 M KNO3, 50 mM sucrose) • 5. BSEP Blocking Buffer (BSEP Wash Buffer+0.5 mg/mL BSA) • 6. 25 mM Mg-ATP solution • 7. 25 mM AMP solution • 8. Corning Costar 96-well flat-bottom, untreated, white Assay Plate (Corning Cat. No. 3912) • 9. Millipore MultiscreenHTs Filtration Plate, glass fiber FB—1.0/0.65 μm (Cat. No. MSFBN6B10 or glass fiber FC—1.2/0.65 μm (Cat. No. MSFCN6B10) • 10. Millipore MultiscreenHTS Vacuum Manifold (Cat. No. MSVMHTS00) • 11. Probe substrates listed in Table 1 • 12. Reference inhibitors listed in Table 1 • 13. Test articles
• 1. Test system: • a. 96-well flat bottom plate containing a suspension of vesicles and a corresponding 96-well glass fiber filtration plate. • b. Transport experiments were conducted in the Assay Uptake Buffer. • c. Transport experiment was initiated with the addition of Mg-ATP or AMP to appropriate wells. • d. Each condition was run in triplicate wells. • 2. Prepared the 96-well flat-bottom assay plate. • a. Incubated the assay plate with the Blocking Buffer for 60 min at 37 °C with orbital shaking at approximately 90 rpm. (NOTE: This is done to prevent non-specific binding of vesicles to polystyrene assay plate). • b. After 60 min, completely removed the Blocking Buffer from the assay plate. • c. The Assay Uptake Buffer solutions were added to the assay plate wells as follows: • i. For probe substrate transport assays, the Assay Uptake Buffer contained vesicles and the probe substrate at the specified concentration. • ii. For the reference inhibition assay, the Assay Uptake Buffer contained vesicles, the reference inhibitor and the probe substrate at the specified concentration in Table 1. • iii. For the test article assays, Assay Uptake Buffer contained vesicles, the test article and the probe substrate at the specified concentration in Table 1. • 3. Incubate at 37 °C with orbital shaking at approximately 90 rpm for the time period specified in Table 1 of this protocol. • 4. Using the 25 mM Mg-ATP or AMP stocks, Mg-ATP or AMP was added to test wells of flat bottom assay plate to a final concentration of 5 mM. • 5. Incubated at 37 °C with orbital shaking at approximately 90 rpm for the incubation time specified in Table 1 of this protocol. • 6. Prepared the 96-well glass fiber filtration plate: • a. Incubated the filtration plate with the Blocking Buffer for 2 min at room temperature with under no vacuum. • b. Turned on vacuum and allowed Blocking Buffer to filter through plate. • c. With vacuum on, filter plate was washed with ice cold Wash Buffer. • 7. At the end of the specified incubation time indicated in […] of this protocol, vesicle transport was quenched by adding ice cold Wash Buffer to samples in 96-well assay plate. • 8. Mixed assay samples (now diluted in Wash Buffer) with pipette and transfered 175 μL into the 96-well glass fiber filtration plate to separate vesicles from buffer by applying vacuum. • 9. Washed filter plate wells with ice cold Wash Buffer. • 10. Allowed filter plate to dry under vacuum. • 11. Transfered filters to scintillation sample plate and added 700 μL of scintillation fluid to the above samples. • 12. Counted the above samples on a 1450 Microbeta (Perkin-Elmer).
• 1. The amount of substrate was quantified with radiometric detection on a 1450 Microbeta (Perkin-Elmer). • 2. For transport study samples run in triplicate, the mean and standard deviation of the replicates were reported. • 3. […]

Regarding `C[C@@H](OC(=O)Nc1c(C2CCN(c3ccc(C4(C(=O)NS(=O)(=O)CCO)CC4)cc3)CC2)nnn1C)c1ccccc1` [Compound 59], the IC50 was 100 to 500 nM in the series on A2058 cells and under 10 nM on hLPAR1. The inhibition at 0.25 h, 10 µM on BSEP was at most 25%.
The like results for `C[C@@H](OC(=O)Nc1cc(Cl)sc1C1CCN(c2ccc(C3(C(=O)O)CC3)cc2)CC1)c1ccccc1` [Compound 92, 1-(4-{4-[5-chloro-3-({[(1R)-1-phenylethoxy]carbonyl}amino)thiophen-2-yl]piperidin-1-yl}phenyl)cyclopropane-1-carboxylic acid] were, in that order, under 100 nM, 10 to 200 nM and 75 to 100%.
As for `Cc1noc(C2CCN(c3ccc(C4(C(=O)O)CC4)cc3)CC2)c1C(O)CCCc1ccccc1` (stereo not drawn) [Compound 20], the values for the IC50 with A2058 cells and on hLPAR1 were 100 to 500 nM and 10 to 200 nM, respectively. The inhibition at 0.25 h, 10 µM on BSEP is 75 to 100%.
Consider `Cc1noc(C2CC3(C2)CN(c2ccc(C4(C(=O)O)CC4)cc2)C3)c1NC(=O)O[C@H](C)c1ccccc1` [Compound 54, 1-(4-{6-[3-methyl-4-({[(1R)-1-phenylethoxy]carbonyl}amino)-1,2-oxazol-5-yl]-2-azaspiro[3.3]heptan-2-yl}phenyl)cyclopropane-1-carboxylic acid], for which the 50% inhibitory concentration (IC50) in the series with A2058 cells was under 100 nM; at hLPAR1, 10 to 200 nM. Moreover, on BSEP, the inhibition at 0.25 h, 10 µM lay within 25 to 50%.
`Cc1noc(C2CCN(c3ccc(C4(C(=O)NS(=O)(=O)CC(C)(C)C(=O)O)CC4)cc3)CC2)c1NC(=O)O[C@H](C)c1ccccc1` [Compound 78, (R)-2,2-dimethyl-3-(N-(1-(4-(4-(3-methyl-4-(((1-phenylethoxy)carbonyl)amino)isoxazol-5-yl)piperidin-1-yl)phenyl)cyclopropane-1-carbonyl)sulfamoyl)propanoic acid]: the IC50 in the series on A2058 cells is under 100 nM; at hLPAR1 it was under 10 nM. In addition, the inhibition at 0.25 h, 10 µM on BSEP lay in the range of 25 to 50%.
The like results for `Cc1ccccc1[C@@H](C)OC(=O)Nc1c(C)noc1C1CC2(C1)CN(c1ccc(C3(C(=O)NS(C)(=O)=O)CC3)cc1)C2` [Compound 7] were, in that order, under 100 nM, under 10 nM and 75 to 100%.
The like results for `Cc1noc(C2CC3(C2)CN(c2ccc(C4(C(=O)NS(C)(=O)=O)CC4)cc2)C3)c1NC(=O)O[C@H](C)c1ccccc1` [Compound 9] were, in that order, 100 to 500 nM, under 10 nM and 50 to 75%.
On to `C[C@@H](OC(=O)Nc1c(C2CCN(c3ccc(C4(C(=O)O)CC4)cc3)CC2)cnn1C)c1ccccc1` [Compound 55], for which the IC50 with A2058 cells lay within 100 to 500 nM; on hLPAR1, 10 to 200 nM. Besides, the inhibition at 0.25 h, 10 µM on BSEP was in the range of 25 to 50%.
The like results for `Cc1noc(C2CCN(c3ccc(C4(C(=O)O)CC4)nc3)CC2)c1NC(=O)O[C@H](C)c1ccccc1` [Compound 90] were, in that order, 100 to 500 nM, 10 to 200 nM and 25 to 50%.
The like results for `COc1ccc(C2CCN(c3ccc(C4(C(=O)O)CC4)cc3)CC2)c(NC(=O)O[C@H](C)c2ccccc2)c1` [Compound 19, (R)-1-(4-(4-(4-methoxy-2-(((1-phenylethoxy)carbonyl)amino)phenyl)piperidin-1-yl)phenyl)cyclopropane-1-carboxylic acid] were, in that order, under 100 nM, under 10 nM and 50 to 75%.
The like results for `C[C@@H](OC(=O)Nc1c(C2CCN(c3ccc(C4(C(=O)NS(=O)(=O)CCC(=O)O)CC4)cc3)CC2)nnn1C)c1ccccc1` [Compound 17] were, in that order, 500 to 5000 nM, under 10 nM and at most 25%.
Turning to `Cc1noc(C2CCN(c3ccc(C4(C(=O)NS(=O)(=O)CC(C)CO)CC4)cc3)CC2)c1NC(=O)O[C@H](C)c1ccccc1` (stereo partly drawn) [Compound 79, (1R)-1-phenylethyl N-{5-[1-(4-{1-[(3-hydroxy-2-methylpropanesulfonyl)carbamoyl]cyclopropyl}phenyl)piperidin-4-yl]-3-methyl-1,2-oxazol-4-yl}carbamate], the IC50 is under 100 nM in the series on A2058 cells and under 10 nM at hLPAR1. Further, the inhibition at 0.25 h, 10 µM on BSEP is 25 to 50%.
Taken in the same sequence, the figures for `Cc1noc(C2CCN(c3ccc(C4(C(=O)O)CC4)cc3)CC2)c1NC(=O)O[C@H](C)c1ccccc1Cl` [Compound 74, 1-(4-{4-[4-({[(1R)-1-(2-chlorophenyl)ethoxy]carbonyl}amino)-3-methyl-1,2-oxazol-5-yl]piperidin-1-yl}phenyl)cyclopropane-1-carboxylic acid] were under 100 nM, under 10 nM and 50 to 75%.
Taken in the same sequence, the figures for `C[C@@H](OC(=O)Nc1ccsc1C1CCN(c2ccc(C3(C(=O)O)CC3)cc2)CC1)c1ccccc1` [Compound 93] were under 100 nM, 10 to 200 nM and 50 to 75%.
Taken in the same sequence, the figures for `Cc1ccccc1[C@@H](C)OC(=O)Nc1c(C)noc1C1CC2(C1)CN(c1ccc(C3(C(=O)O)CC3)cc1)C2` [Compound 33, 1-(4-{6-[3-methyl-4-({[(1R)-1-(2-methylphenyl)ethoxy]carbonyl}amino)-1,2-oxazol-5-yl]-2-azaspiro[3.3]heptan-2-yl}phenyl)cyclopropane-1-carboxylic acid] were under 100 nM, under 10 nM and 75 to 100%.
Consider `C[C@@H](OC(=O)Nc1c(C2CCN(c3ccc(C4(C(=O)NS(=O)(=O)CC(=O)O)CC4)cc3)CC2)nnn1C)c1ccccc1` [Compound 58, 2-[[1-[4-[4-[1-methyl-5-[[(1R)-1-phenylethoxy]carbonylamino]triazol-4-yl]-1piperidyl]phenyl]cyclopropanecarbonyl]sulfamoyl]acetic acid], for which the IC50 with A2058 cells lay in the range of 100 to 500 nM; at hLPAR1, 10 to 200 nM. In addition, the inhibition at 0.25 h, 10 µM at BSEP was at most 25%.
Taken in the same sequence, the figures for `Cc1noc(C2CCN(c3ccc(C4(C(=O)NS(=O)(=O)C(C)CC(=O)O)CC4)cc3)CC2)c1NC(=O)O[C@H](C)c1ccccc1` (stereo partly drawn) [Compound 72] were under 100 nM, under 10 nM and at most 25%.

One may read the IC50 as the midpoint of a concentration-inhibition curve. The inhibition is the percentage by which the read-out fell short of the control.
